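Compound exposure: 48 hours, 5 concentrations, 96-well plates. TGI is the concentration that stops growth completely.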
Legend:
Experiment in all cases: NCI-60 cell line screen, 48 h
SN12C renal = system: SN12C renal
MALME-3M melanoma = system: MALME-3M melanoma
UO-31 renal = system: UO-31 renal
NCI-H522 lung = system: NCI-H522 lung
UACC-62 melanoma = system: UACC-62 melanoma
SK-MEL-28 melanoma = system: SK-MEL-28 melanoma
OVCAR-4 ovarian = system: OVCAR-4 ovarian
RXF 393 renal = system: RXF 393 renal
MDA-MB-231 breast = system: MDA-MB-231 breast
NCI-H23 lung = system: NCI-H23 lung
786-0 renal = system: 786-0 renal
KM12 colon = system: KM12 colon

Compound | TGI (SN12C renal) [µM] | TGI (MALME-3M melanoma) [µM] | TGI (UO-31 renal) [µM] | TGI (NCI-H522 lung) [µM] | TGI (UACC-62 melanoma) [µM] | TGI (SK-MEL-28 melanoma) [µM] | TGI (OVCAR-4 ovarian) [µM] | TGI (RXF 393 renal) [µM] | TGI (MDA-MB-231 breast) [µM] | TGI (NCI-H23 lung) [µM] | TGI (786-0 renal) [µM] | TGI (KM12 colon) [µM]
O=C(Cc1nc2ccc(C(=O)c3ccccc3)cc2[nH]c1=O)C(=O)Nc1ccc(Br)cc1 | > 100 | > 100 | > 100 | > 100 | > 100 | > 100 | > 100 | > 100 | > 100 | > 100 | > 100 | > 100
COC(=O)C1=C(C(=O)OC)C2OC1C1C2C2(C)C(C)=C(C)C1(C)S2=O (centres undefined) | 31.1 | 20.9 | 17.6 | 6.49 | 26.1 | 33.8 | 24.6 | 10.6 | > 55.7 | 25.8 | 20.2 | 45.4
CCOC(=O)c1cc2c([N+](=O)[O-])c(NC(C)=O)ccc2s1 | > 100 | > 100 | > 100 | > 100 | > 100 | > 100 | > 100 | > 100 | 83.9 | > 100 | > 100 | > 100
C[C@]12OC[C@H](c3ccccc3)N1C(=O)C1[C@H]2CC12SCCS2 (some centres undefined) | > 100 | > 100 | > 100 | > 100 | > 100 | > 100 | > 100 | > 100 | > 100 | > 100 | > 100 | > 100
CCOC(=O)c1cc(=C2\CCN(CC(C)CC)C2=S)/c(=C(/O)CC)[nH]1 (centres undefined) | 39.2 | 23.3 | 35.4 | 36.4 | 30.8 | 34.8 | 30.9 | 44.9 | 31.8 | 33.6 | 30.5 | 32
Cc1ccc(N=Nc2c3c(c(O)c4ccccc24)CCC(C)(C)O3)cc1 | 28.5 | 21.6 | 73.3 | > 100 | 28.1 | 42.1 | 44.5 | > 100 | > 100 | 28.6 | > 100 | 55.7
COc1ncc(C=C(C#N)C#N)c(OC)n1 | 74.8 | > 100 | 56.8 | 45.4 | > 100 | > 100 | > 100 | > 100 | > 100 | > 100 | 42.4 | > 100
CCOC(=O)c1sc2nc(SC)nc3c2c1N=CN3c1ccc(Br)cc1 | > 100 | > 100 | > 100 | > 100 | > 100 | > 100 | > 100 | > 100 | > 100 | > 100 | > 100 | > 100
O=C(O)c1ccc(NC(c2ccccc2)c2ccc3cccnc3c2O)cc1 (centres undefined) | > 54.1 | > 100 | 34.6 | 55.8 | 36.7 | > 100 | 36.6 | 28.8 | > 61.4 | > 100 | > 76.6 | > 100
Cc1c(S(=O)(=O)c2ccccc2)c(N)n(Cc2ccccc2)c1C | > 100 | > 100 | > 100 | > 100 | > 100 | > 100 | > 100 | > 100 | > 100 | > 100 | > 100 | > 100
Clc1nc(Cl)nc(NC23CC4CC(CC(C4)C2)C3)n1 | 35.2 | 30.5 | 23.5 | 30.9 | 35.1 | 36.8 | 39.2 | 32.1 | 36.7 | 34.1 | 31.2 | 32.2
c1cc2nnc1SCCSCCSc1ccc(nn1)SCCSCCS2 | > 100 | > 100 | > 100 | > 100 | > 100 | > 100 | > 100 | > 100 | > 100 | > 100 | > 100 | > 100
Cc1cccc(N2C(=O)C3ON(C(C(N)=O)c4ccccc4)C(c4c5ccccc5c(Cl)c5ccccc45)C3C2=O)c1C (centres undefined) | 15.6 | 34.7 | 24.2 | > 50 | 13.8 | 41.7 | 25.3 | 13.5 | 18.1 | 32.1 | 20.5 | 8.08
N#Cc1c(N)[nH]c(=S)c(C#N)c1-c1cccc(Cl)c1 | 56.3 | > 100 | > 100 | 56.7 | > 100 | > 100 | > 100 | 46.6 | > 100 | > 100 | 34.2 | > 100
Cc1cn(C2C=CC(COP(=O)(OCC3=CC(=O)c4ccccc4C3=O)N(C)CCCCCl)O2)c(=O)[nH]c1=O (centres undefined) | 23.9 | 0.982 | 25.4 | 29.4 | 14.3 | 18.2 | 23.2 | 15.8 | 25.5 | 6.49 | 25.3 | 28.7
O=C1CC2C=CC(O)C(C1)C2 (centres undefined) | > 100 | > 100 | > 100 | > 100 | > 100 | > 100 | > 100 | 12.2 | > 100 | > 100 | > 100 | > 100
Cc1cc(-c2nc3ccccc3s2)ccc1NS(=O)(=O)O | > 100 | > 100 | > 100 | > 67.3 | > 100 | > 100 | > 100 | > 100 | > 100 | > 100 | > 100 | > 55.4

— PubChem BioAssay (NCI)
